# Structures can show the parent of a compound that is named as a salt. Where two headings read alike, the source gives them in different places.
# Assay: Hydrolisis rate of prodrug in whole rat blood (Franz-type cell, phenytoin measured by HPLC)
# Assay type: in vitro ADME
# Details: for hydrolisis (rate, in words): blood hydrolisis, summary statement on Tables 1 and 2; for metabolised at 10 s: time 0.17 min; for metabolised at 20 s: time 0.33 min; for metabolised at 0.5 min: time 0.50 min; for metabolised at 0.025 h: time 1.5 min; for metabolised at 0.8 h: time 48.00 min; for metabolised at 15 s: time 0.25 min; for metabolised at 0.25 h: time 15.00 min; for metabolised at 1 h: time 60.00 min; for metabolised at 2.45 h: time 147.00 min; for metabolised at 3.15 h: time 189.00 min
# Experimental: To study the hydrolisis of prodrugs in blood, Franz-type permeation cells of the company Crown Glass Co. Somerville, N.Y. have been used. The receiving compartment is used which allows for water recirculation using a glass packet in order to keep the system at 37 °C. This compartment is equipped with magnetic stirring.
# For the experiment, male Wistar albino rats weighing 200-275 g, bred and selected at the stabularium of the School of Pharmacy of Barcelona, were used. The animals were fasted for 20 hours before starting the trials, but they were given water ad libitum throughout this period. In order to avoid coprophagy, the animals were placed in cages with a broad wire netting bottom.
# After anesthesizing the rat, blood was drawn by cardiac puncture. A known amount of blood (10 ml) containing a prodrug concentration of 40 µg/ml was introduced through the lateral tubes of the receiving compartment of Franz cells. The system was kept at 37 °C and stirred magnetically, samples were taken (1 ml) and phenytoin was measured in each of them by HPLC.
# The analytical methods were validated prior to estimating phenytoin levels in blood samples.
# As in the previous case, three replicates of the tested product were used.
# [1] = rat, whole blood, whole rat blood, 37 °C, prodrug 40 µg/ml, mean of replicates, read-out: % HYDROLISIS IN WHOLE BLOOD, m ± s.d.
# [2] = rat, whole blood, whole rat blood, 37 °C, prodrug 40 µg/ml, replicate 1, read-out: % HYDROLISIS IN WHOLE BLOOD
# [3] = rat, whole blood, whole rat blood, 37 °C, prodrug 40 µg/ml, replicate 2, read-out: % HYDROLISIS IN WHOLE BLOOD
# [4] = rat, whole blood, whole rat blood, 37 °C, prodrug 40 µg/ml, replicate 3, read-out: % HYDROLISIS IN WHOLE BLOOD
# [5] = rat, whole blood, whole rat blood, 37 °C, mean of replicates, read-out: % HYDROLISIS IN WHOLE BLOOD, m ± s.d.
# [6] = rat, whole blood, whole rat blood, 37 °C, replicate 1, read-out: % HYDROLISIS IN WHOLE BLOOD
# [7] = rat, whole blood, whole rat blood, 37 °C, replicate 2, read-out: % HYDROLISIS IN WHOLE BLOOD
# [8] = rat, whole blood, whole rat blood, 37 °C, replicate 3, read-out: % HYDROLISIS IN WHOLE BLOOD
structure (smiles),measurement,setting,value
"CN1CCN(CC(=O)OCN2C(=O)NC(c3ccccc3)(c3ccccc3)C2=O)CC1 [IX, 5,5-diphenyl-3-[(4-methylpiperazinyl)-acetoxymethyl]hydantoin dihydrochloride]","hydrolisis (rate, in words)",,virtually instantaneous
same,metabolised at 10 s,[1],100 ± 7.96%
same,metabolised at 10 s,[2],99%
same,metabolised at 10 s,[3],109%
same,metabolised at 10 s,[4],93.1%
same,metabolised at 20 s,[1],102 ± 20.8%
same,metabolised at 20 s,[2],85.6%
same,metabolised at 20 s,[3],95.8%
same,metabolised at 20 s,[4],126%
same,metabolised at 0.5 min,[1],102 ± 13.2%
same,metabolised at 0.5 min,[2],92.7%
same,metabolised at 0.5 min,[3],96.5%
same,metabolised at 0.5 min,[4],117%
same,metabolised at 0.025 h,[1],104 ± 7.14%
same,metabolised at 0.025 h,[2],95.8%
same,metabolised at 0.025 h,[3],108%
same,metabolised at 0.025 h,[4],109%
same,metabolised at 5 min,[1],109%
same,metabolised at 5 min,[2],105%
same,metabolised at 5 min,[3],117%
same,metabolised at 5 min,[4],105%
same,metabolised at 16 min,[1],115 ± 5.79%
same,metabolised at 16 min,[3],119%
same,metabolised at 16 min,[4],110%
same,metabolised at 0.8 h,[1],100 ± 3.91%
same,metabolised at 0.8 h,[2],97.2%
same,metabolised at 0.8 h,[3],99.4%
same,metabolised at 0.8 h,[4],105%
same,metabolised at 115 min,"rat, whole blood, whole rat blood, 37 °C, prodrug 40 µg/ml, time 115.00 min, replicate 2",99.7%
"O=C1NC(c2ccccc2)(c2ccccc2)C(=O)N1COP(=O)(O)O [XI, disodium salt of 5,5-diphenyl-3-(hydroxymethyl]hydantoin phosphoric ester]","hydrolisis (rate, in words)",,much more slower
same,metabolised at 0.5 min,[1],8.47 ± 2.79%
same,metabolised at 0.5 min,[2],6.37%
same,metabolised at 0.5 min,[3],7.41%
same,metabolised at 0.5 min,[4],11.7%
same,metabolised at 15 s,[5],4.72 ± 1.84%
same,metabolised at 15 s,[6],3.42%
same,metabolised at 15 s,[7],6.03%
same,metabolised at 2 min,[5],15.1 ± 7.72%
same,metabolised at 2 min,[6],10.5%
same,metabolised at 2 min,[7],10.8%
same,metabolised at 2 min,[8],24%
same,metabolised at 7 min,[5],33.2 ± 12.3%
same,metabolised at 7 min,[6],21.4%
same,metabolised at 7 min,[7],32%
same,metabolised at 7 min,[8],46%
same,metabolised at 0.25 h,[5],59.6 ± 29.8%
same,metabolised at 0.25 h,[6],38.9%
same,metabolised at 0.25 h,[7],46.1%
same,metabolised at 0.25 h,[8],93.8%
same,metabolised at 1 h,[5],77.7 ± 4.6%
same,metabolised at 1 h,[6],74.5%
same,metabolised at 1 h,[7],81%
same,metabolised at 2.45 h,[5],81.31 ± 0.47%
same,metabolised at 2.45 h,[6],81%
same,metabolised at 2.45 h,[7],81.7%
same,metabolised at 3.15 h,[5],88.5 ± 13.1%
same,metabolised at 3.15 h,[6],79.3%
same,metabolised at 3.15 h,[7],97.7%
